Source: PubChem BioAssay AID2423 (Broad Institute, 2010)
Results filed as inconclusive are left out. Activity calls are given as the source filed them. The rule behind the calls is not given here.

The compounds below were run on C. albicans CaCi-8 + fluconazole, Alamar Blue growth, 48 h (assay: resistant C. albicans growth inhibition with fluconazole, dose response, CaCi-8 strain, Alamar Blue fluorescence (AID 2423)).
`Cc1ccc(C(=O)c2oc3nc(C)cc(C)c3c2N)cc1` gave an EC50 of 5280 nM. `Cc1ccc(S(=O)(=O)CC2CSc3nc4ccccc4n32)cc1` (stereo unspecified) was tested, and the EC50 was 2520 nM. In the case of `CCCc1ccc(C2C3=C(CC(C)(C)CC3=O)NC3=C2C(=O)c2ccccc23)cc1` (stereo unspecified), the EC50 is reported as 1780 nM. For `Nc1ncnc2c1ncn2[C@@H]1O[C@H](CO)C[C@H]1O`, the EC50 was > 15000 nM (inactive). For `O=C(Nc1ccccc1)OCN1C(=O)c2ccccc2C1=O`, the EC50 was > 15000 nM (inactive). Work on `COc1cc(OC)c2cc(C(=O)N/N=C/c3ccccc3O)[nH]c2c1` yielded an EC50 of 1240 nM. For `CCc1ccc(-c2csc3ncn(Cc4ccc(C(=O)O)cc4)c(=O)c23)cc1`, the EC50 was 954 nM. `O=C(N/N=C/c1cc([N+](=O)[O-])ccc1O)C1C2CCCCC21` (stereo unspecified) showed an EC50 of 2160 nM. With `Cc1nn(-c2ccccc2)c(C)c1C(=O)OC/C(O)=C(\C#N)c1nc2ccccc2[nH]1` the EC50 was 1030 nM. `CCOC(=O)c1sc(N2C(=O)C(O)=C(C(=O)c3ccco3)C2c2cccc(Cl)c2)nc1C` (stereo unspecified) showed an EC50 of 597 nM. For `Oc1cccc(Nc2ncnc3c2oc2ccccc23)c1`, the EC50 was 6650 nM. Work on `CSCCC1NC2(C(=O)Nc3c(C)cc(Cl)cc32)[C@@H]2C(=O)N(C3CCCC3)C(=O)[C@H]12` (stereo partly specified) yielded an EC50 of 10100 nM. In the case of `O=[N+]([O-])c1ccc(C(=Nc2cccc3ccccc23)N2CCOCC2)cc1`, the EC50 is reported as 1350 nM. With `CCCOc1cccc(-c2nnc(NC(=O)c3ccco3)s2)c1` the EC50 was 622 nM. In the case of `CCN(CC)c1ccc(N=Cc2ccc(N(CC)CC)cc2O)cc1`, the EC50 is reported as 11100 nM. `O=Nc1c(-c2cccc([N+](=O)[O-])c2)nc2ncccn12` gave an EC50 of 828 nM. `CN=c1scc(-c2cccs2)n1/N=C/c1ccc(O)c(O)c1O` gave an EC50 of 14500 nM. In the case of `NC1=NC[C@H](Cc2ccccc2)N1CCCCC1CCCCC1`, the EC50 is reported as 7380 nM. `CON/C=C(\C=Nc1ccc(Cl)cc1Cl)c1ncc(C(F)(F)F)cc1Cl` was tested, and the EC50 was > 16000 nM (inactive). With `O=C(/C=C/c1ccco1)Oc1cc(Br)cc(/C=N/NC(=O)c2ccccc2O)c1` the EC50 was 3320 nM. In the case of `CCOC(=O)c1ccc(Oc2nc(NC(C)(C)C)nc(N(C)C)n2)cc1`, the EC50 is reported as 13300 nM. Compound `COc1cc(C(=O)NC(=S)N(CCc2ccccc2)CCc2ccccc2)cc(OC)c1OC` has an EC50 of 1820 nM. For `O=C(CCCCCN1C(=O)c2cccc3cccc(c23)C1=O)N1CCOCC1`, the EC50 was > 15000 nM (inactive). With `CCc1nnc(NC(=O)CSc2nnc(CNc3cccc(C)c3)n2-c2ccccc2)s1` the EC50 was > 15000 nM (inactive). `CC1=C/C(=N\NC(=S)NCCc2ccccc2)CC(C)(C)C1` was tested, and the EC50 was > 15000 nM (inactive). In the case of `Cc1ccc(C(=O)N/N=C/c2c(O)ccc3ccccc23)cn1`, the EC50 is reported as 947 nM. Compound `O=c1cc2oc3cc(O)c(O)cc3c(-c3ccccc3[N+](=O)[O-])c-2cc1O` has an EC50 of 1520 nM. Work on `Clc1ccccc1-c1nc2ccccc2c2nc3ccccc3n12` yielded an EC50 of 204 nM. `O=C(NNC(=S)Nc1cccc(C(F)(F)F)c1)c1ccc(Cl)cc1Cl` showed an EC50 of 1970 nM. In the case of `C/C(=N\NC(=O)c1cc2ccccc2cc1O)c1ccccn1`, the EC50 is reported as 1450 nM. `CC(=O)Nc1ccc(Nc2c3ccccc3nc3ccccc23)cc1` was tested, and the EC50 was 5980 nM. Compound `O=C(CCS(=O)(=O)Cc1ccccc1)Nc1nnc(C(F)(F)F)s1` has an EC50 of 746 nM. `COc1ccc(/C=C/C(=O)N(c2ccccn2)C2CCCCC2)cc1OC` was tested, and the EC50 was 7990 nM. Work on `CN1CCN(Cc2cc(COCc3ccccc3)c3cccnc3c2O)CC1` yielded an EC50 of 1460 nM. Work on `CCCCOc1ccc(-c2cc(C(=O)NNC(=S)NCC)c3ccccc3n2)cc1` yielded an EC50 of 1060 nM. Work on `CN(C)CCCNc1cc(C(C)(C)C)nc2c(-c3ccc(Cl)cc3)cnn12` yielded an EC50 of 5200 nM. Work on `CCN(CC)c1ccc(/C=N/NC(=O)c2ccc3nc[nH]c3c2)c(O)c1` yielded an EC50 of 1160 nM. For `COC(=O)N/N=C/c1ccc(-c2cc(Cl)cc(Cl)c2)o1`, the EC50 was 929 nM. Compound `Cc1ccc2c(c1)sc(-c1ccc(N(C)C)cc1)[n+]2C` has an EC50 of 193 nM. With `CCCC(=O)NC(c1ccccc1OC)c1ccc2cccnc2c1O` (stereo unspecified) the EC50 was 1040 nM. With `O=C(/C=C/c1cccs1)NC(=S)NNC(=O)c1ccccc1O` the EC50 was 8540 nM. `O=Nc1c(O)n(Cc2cccc(C(F)(F)F)c2)c2ccccc12` was tested, and the EC50 was 932 nM. In the case of `O=C(N/N=C/c1cc([N+](=O)[O-])ccc1O)C(O)(c1ccccc1)c1ccccc1`, the EC50 is reported as 5790 nM. `N=C(N)c1ccc(/C=C/c2ccc(C(=N)N)cc2O)cc1` was tested, and the EC50 was > 15000 nM (inactive). `Cc1cc(N2C(=O)C(O)=C(C(=O)c3cc4ccccc4o3)C2c2cccs2)no1` (stereo unspecified) was tested, and the EC50 was 4080 nM. `O=C(O/N=C1/CCSc2ccccc21)c1ccc(F)cc1` was tested, and the EC50 was > 15000 nM (inactive). Compound `COCc1nnc(NC(=O)c2ccc(S(=O)(=O)N3CCCCCC3)cc2)o1` has an EC50 of 12900 nM. `C(C#CCCCCCCCCC[n+]1ccccc1)#CCCCCCCCCC[n+]1ccccc1` showed an EC50 of 3520 nM. Work on `COc1ccccc1NC1=C(N2CCCCC2)C(=O)c2ccccc2C1=O` yielded an EC50 of 245 nM. `COc1ccc(-c2cc(C3CCN(Cc4cccc(C(F)(F)F)c4)CC3)[nH]n2)cc1` gave an EC50 of 8130 nM. Compound `CCOc1ccccc1NC(=O)C(=O)N/N=C/c1cc(Br)ccc1O` has an EC50 of 1380 nM. `CCCc1cc(=O)[nH]c(SCc2csc(-c3ccccc3)n2)n1` gave an EC50 of 1390 nM. In the case of `O=[N+]([O-])c1nn(-c2ccc(Cl)cc2)n(O)c1=NCc1cccnc1`, the EC50 is reported as 1830 nM. With `Cc1ccc(/C=C/C(=O)c2ccccc(=O)c2O)c(C)c1` the EC50 was 1260 nM. With `NNC(=S)Nc1cccc(Cl)c1` the EC50 was 8450 nM. `Oc1ccc(N=Nc2ccc3c(c2)OCCO3)c2ncccc12` gave an EC50 of 709 nM. Work on `Oc1ccc(/C=N/n2c(COc3ccccc3)n[nH]c2=S)cc1O` yielded an EC50 of 16300 nM. `O=[N+]([O-])c1cc(Cl)c2cccnc2c1O` gave an EC50 of 291 nM. In the case of `CCCCCc1ccc(OCCCC[n+]2ccccc2)c(CCCCC)c1`, the EC50 is reported as > 16000 nM (inactive). `O=C(/C=C/c1ccccc1)NC(=S)Nc1ccc(N2CCOCC2)c(Cl)c1` was tested, and the EC50 was > 16000 nM (inactive). In the case of `CC(C)CCNC(=O)C(c1ccco1)N(Cc1ccc(F)cc1)C(=O)c1snc(C(N)=O)c1N` (stereo unspecified), the EC50 is reported as 15800 nM. `CCOc1ccc(N=Nc2ccc(O)c3ncccc23)cc1` showed an EC50 of 1150 nM. Compound `CCSc1nnc(-c2ccc(C)cc2)c2ccccc12` has an EC50 of 193 nM. `CCOC(=O)c1sc(Nc2nc3c(OC)cccc3s2)nc1C` showed an EC50 of 1950 nM. `O=[N+]([O-])c1ccc2c(c1)[nH]c(=S)n2-c1ccccc1` showed an EC50 of 648 nM. `CC(C)=CCc1c2c(c(O)c3c(=O)c4c(oc13)-c1cc(O)c(O)cc1OC4C=C(C)C)C=CC(C)(C)O2` (stereo unspecified) was tested, and the EC50 was 13000 nM. Work on `COc1cc2c(cc1NC(=O)c1ccco1)CCCC2` yielded an EC50 of 1060 nM. Work on `Cn1c(-c2c(N)n(CCc3ccccc3)c3nc4ccccc4nc23)nc2ccccc21` yielded an EC50 of 6180 nM. `COc1cccc(/C=N/NC(=O)c2nc(-c3ccccc3)cc(-c3ccccc3)n2)c1O` gave an EC50 of 1760 nM. With `O=C(Nc1cc(F)cc(F)c1)c1ccc(NCCCN2CCCCCC2)c([N+](=O)[O-])c1` the EC50 was > 16000 nM (inactive). In the case of `COc1cccc(/C=N/NC(=O)C(=O)Nc2ccccc2OC(F)(F)C(F)F)c1O`, the EC50 is reported as 1020 nM. `COCc1cc(CN2CCN(C)CC2)c(O)c2ncccc12` gave an EC50 of 6660 nM. `O=C(Nc1ccccc1O)c1ccccc1O` was tested, and the EC50 was 784 nM. For `O=C(c1ccc(Cn2c(=O)[nH]c3ccccc3c2=O)cc1)N1CCN(c2ccc(F)cc2)CC1`, the EC50 was 3250 nM. `CCCNC(=O)C12CCC(C)(c3nc4cc(C)c(C)cc4nc31)C2(C)C` (stereo unspecified) was tested, and the EC50 was > 15000 nM (inactive). With `COc1ccccc1N1CCN(Cc2cc(Br)c(O)c3ncccc23)CC1` the EC50 was 4490 nM. For `OCCN1CCN(C(=S)NC2CCCC2)CC1`, the EC50 was > 16000 nM (inactive). In the case of `O=C(Nc1ccccc1N1CCOCC1)c1ccc(S(=O)(=O)NCc2ccco2)cc1`, the EC50 is reported as > 15000 nM (inactive). In the case of `CCOC(=O)c1c(-c2ccccc2)oc2cc(Br)c(O)c(C=O)c12`, the EC50 is reported as 1440 nM. With `c1csc(CNc2ncnc3sccc23)c1` the EC50 was 1760 nM. With `C=CCNC(=S)N/N=C(\C)c1ccccn1` the EC50 was 2300 nM. Compound `Cc1ccc(-c2cn(-c3ccccc3)c3[n+]2CCCS3)cc1` has an EC50 of 10300 nM. For `O=C(N/N=C/c1c(O)n(CCC2=CCCCC2)c(=S)[nH]c1=O)c1ccccc1`, the EC50 was 10700 nM. `O=C(NCc1cc([N+](=O)[O-])ccc1O)c1cccnc1Sc1ccccc1Cl` was tested, and the EC50 was 148 nM. For `Cc1cc(N/N=C/c2c(O)ccc3ccccc23)nc(-c2ccccc2O)n1`, the EC50 was 133 nM. For `NNC(=O)c1cc(O)c(O)c(O)c1`, the EC50 was 8640 nM. With `Cc1oc2c(F)c(F)c(F)c(F)c2c1S(=O)(=O)Nc1cccc(C(F)(F)F)c1` the EC50 was 1490 nM. Work on `CCOc1ccc(C(Nc2cccnc2)c2cc(Cl)c3cccnc3c2O)cc1` (stereo unspecified) yielded an EC50 of 930 nM. `Cc1ccc(C(=O)CC(=O)c2ccccc2C)c(O)c1` showed an EC50 of 1900 nM. `CC(C)[C@H]1C(=O)O[C@H](C(C)C)C(=O)N(C)[C@@H](C(C)C)C(=O)O[C@H](C(C)C)C(=O)N(C)[C@@H](C(C)C)C(=O)O[C@H](C(C)C)C(=O)N1C` was tested, and the EC50 was > 15000 nM (inactive). Work on `Cn1cc(C(c2ccccn2)c2cn(C)c3ccccc23)c2ccccc21` yielded an EC50 of 185 nM. Compound `COc1cc2ccccc2cc1C(=O)NNC(=O)c1ccccc1O` has an EC50 of 8440 nM. With `CCCC(=O)NC(c1ccc(N(C)C)cc1)c1ccc2cccnc2c1O` (stereo unspecified) the EC50 was 627 nM. `Cc1ccc(S(=O)(=O)CC(C)N2CCOCC2)c(S(=O)(=O)CC(C)N2CCOCC2)c1` (stereo unspecified) was tested, and the EC50 was > 16000 nM (inactive). With `CCOC(=O)CNC(=O)c1sc2ncnc(N3CCc4ccccc4C3)c2c1C` the EC50 was 4560 nM. With `Cc1cc(SCC(=O)N/N=C/c2ccc(O)c(O)c2O)c(C)cc1Br` the EC50 was 884 nM. Compound `O=C(CSc1ccc(Cl)cc1)Nc1nnc(-c2ccco2)o1` has an EC50 of 2720 nM. `CCn1c(=O)c(C(=O)Nc2ncccc2C)c(O)c2ccccc21` was tested, and the EC50 was 3360 nM. `COc1ccc(-c2c[n+]3c(n2-c2ccccc2)CCCCC3)cc1` gave an EC50 of 9580 nM. In the case of `O=[N+]([O-])c1cc(Cl)c(O)c2ncccc12`, the EC50 is reported as 344 nM. Compound `O=C(N/N=C/c1sc2ccccc2c1O)c1cccc2ccccc12` has an EC50 of 1580 nM. For `N#C/C(=N\Nc1cccc([N+](=O)[O-])c1)C(=O)c1ccc(Br)cc1`, the EC50 was 5560 nM. `COc1ccc(C(=O)N/N=C(\Cc2ncc[nH]2)c2ccccc2)cc1` was tested, and the EC50 was > 16000 nM (inactive). Work on `Cc1ccc(C)c(NC(=S)NNC(=O)c2csc(C(C)C)c2)c1` yielded an EC50 of 1210 nM. In the case of `c1ccc(CN2CCc3nc4ccccc4cc3C2)cc1`, the EC50 is reported as > 16000 nM (inactive). `CC(=S)/C=C1\Sc2ccccc2N1C` showed an EC50 of 5570 nM. `O=C(O)CCCCCn1c(O)c(C=C2N=c3ccccc3=N2)sc1=S` was tested, and the EC50 was 1640 nM. With `CC1(C)CC(N2CCN(Cc3ccccc3)CC2)=CC(=[N+]2CCCCC2)C1` the EC50 was 3350 nM. `O=[N+]([O-])c1cc(/C=N/Nc2nc3ccccc3[nH]2)c(O)cc1O` was tested, and the EC50 was 6220 nM. `Cc1nc2sc(C(c3cccc(F)c3)N3CCCC(C)C3)c(O)n2n1` (stereo unspecified) was tested, and the EC50 was 798 nM. For `Cc1ccc2nc(/C(C#N)=C\c3ccc(OC(=O)c4cccs4)cc3)[nH]c2c1`, the EC50 was 528 nM.
